Target: T1, ACVR1 (ALK2) (Homo sapiens, UniProt Q04771)
T1 construct: purchased Thermo Fisher Scientific (Life Technologies) SelectScreen
Assay: SelectScreen LanthaScreen
Assay type: binding
Conditions: read-out: % displacement
How it was run: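 SelectScreen broad panel; activity (Z'LYTE, Adapta) plus binding formats. ATP: Km app for CSF1R Z'LYTE; 10 for CAMK1 Adapta. Readout = % per kinase.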

T1 sequence (Q04771 21-509): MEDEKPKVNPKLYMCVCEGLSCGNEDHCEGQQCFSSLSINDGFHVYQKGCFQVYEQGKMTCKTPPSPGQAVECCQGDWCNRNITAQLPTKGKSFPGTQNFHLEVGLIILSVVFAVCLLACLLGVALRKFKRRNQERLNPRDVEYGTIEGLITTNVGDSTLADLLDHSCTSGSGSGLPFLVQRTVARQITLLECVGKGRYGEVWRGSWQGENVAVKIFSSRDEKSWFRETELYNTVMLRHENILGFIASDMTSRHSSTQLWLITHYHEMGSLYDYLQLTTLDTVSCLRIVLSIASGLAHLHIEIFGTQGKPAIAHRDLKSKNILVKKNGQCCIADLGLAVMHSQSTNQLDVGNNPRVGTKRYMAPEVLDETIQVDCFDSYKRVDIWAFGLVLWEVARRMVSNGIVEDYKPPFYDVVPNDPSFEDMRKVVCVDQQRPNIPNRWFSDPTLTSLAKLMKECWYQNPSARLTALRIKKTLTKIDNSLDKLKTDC

SMILES: CN(C(=O)CN1CCOCC1)c1ccc2sc3c(-c4cccc5c(=O)cc(N6CC7CCC(C6)O7)oc45)cccc3c2c1 [NU5455]
- inhibition at 1 µM: 0.7%

— publication PMC6934184, “Selective DNA-PKcs inhibition extends the therapeutic index of localized radiotherapy and chemotherapy” (The Journal of Clinical Investigation, 2019)
